Data published in PubChem BioAssay AID2060488 (Molecular Pharmacology Branch, DTP, NCI, 2025).

System: 966289-007-R4-J1-PDC complex spheroid viability
Assay: Anticancer human tumor 966289-007-R4-J1-PDC patient-derived pancreatic adenocarcinoma cell line growth inhibition [GQUAD]
Settings: for IC50: curve of first compound; for viability, T/C: stronger effect = lower value
Excerpt: DNA G-quadruplex Stabilizer Agents in Combinations in Complex Spheroids
A high-throughput screen of multi-cell type tumor spheroids was designed to identify active combinations of DNA G-quadruplex stabilizer agents and targeted small molecules. Complex spheroids include a stromal component modeled by human endothelial cells (HUVEC) and fibroblasts modeled by human mesenchymal stem cells (MSCs). The concentration ranges selected for each drug and investigational agent were based upon clinically achievable concentrations if the clinical Cmax of the agent was known.
Compounds. The drugs and investigational agents: pidnarulex (CX-5461; NSC782164), APTO-253 (NSC789042), BRACO-19 (NSC847499), peposertib (NSC802822), ceralasertib (NSC780249), elimusertib (NSC800525), camonsertib (NSC841442), AZD-1390 (NSC803789), olaparib (NSC753686), talazoparib (NSC767125), ART-558 (NSC835418), sotorasib (NSC818433), MRTX-1133 (NSC836407), SN-38 (NSC673596), topotecan (NSC609699), etoposide (NSC141540), doxorubicin (NSC123127), gemcitabine (NSC613327), 5-fluorouracil (NSC19893), paclitaxel (NSC125973), vemurafenib (NSC761431), panobinostat (NSC761190), R-306465 (JNJ-16241199; NSC773264), adavosertib (NSC754352), TP-3654 (NSC805149), carboplatin (NSC241240), KSQ-4279 (NSC840948), and staurosporine (NSC755774) were obtained from the National Cancer Institute (NCI) Developmental Therapeutics Program Chemical Repository (34). The FDA-approved anticancer drug set is available from the NCI Developmental Therapeutics Program. […] The stock solutions were prepared in dimethyl sulfoxide (DMSO, Sigma-Aldrich, St. Louis, MO, cat. D2650) at 800-fold the tested concentration and stored at -70 degrees C prior to their use. All drugs and investigational agents were tested over a range starting from a high concentration at or near the clinical Cmax and decreasing in half-log increments. If the clinical Cmax for an agent had not been determined, the highest concentration tested was 10 microM.
2.3 Cell Culture. All cells were maintained in an incubator at 37 degrees C and 5% CO2 with 95% humidity. The PDC lines were cultured according to standard operating procedures established by the NCI PDMR. All PDCs were thawed and cultured in Matrigel-coated flasks prepared with a working solution of 1X Ham's F-12 nutrient mix, without supplementation (Invitrogen, cat. 11765054), 100 U/mL penicillin-streptomycin (Invitrogen, cat. 15140122), and 2.5% Matrigel (Corning Inc., cat. 354248) for the first three passages. The 857933-349-R-J2-PDC line was cultured in 6C/Colon 1B media, which includes advanced DMEM/F-12 (Thermo Fisher Scientific, cat. 12634028), 10 mM HEPES (Thermo Fisher Scientific, cat. 15630080), 1X GlutaMAX supplement (Thermo Fisher Scientific, cat. 35050061), 0.1 mg/mL primocin (InvivoGen, cat. ant-pm-2), 10% defined fetal bovine serum, heat inactivated (HyClone Laboratories Inc., cat. SH30070.03HI), 50% L-WRN conditioned media (ATCC, cat. CRL-3276), 1.25 mM N-Acetyl-L-cysteine (Sigma-Aldrich, cat. A9165), 10 mM nicotinamide (Sigma-Aldrich, cat. N0636), 1X B-27 supplement (Thermo Fisher Scientific, cat. 17504044), 1X N-2 supplement (Thermo Fisher Scientific, cat. 17502048), 10 microM Y-27632 dihydrochloride (Tocris Bioscience, cat. 1254), and 50 ng/mL human EGF recombinant protein (Thermo Fisher Scientific, cat. PHG0311). The 485176-168-R4-J1-PDC line was cultured in Panc media, which includes all 6C/Colon 1B media components plus 100 ng/mL human FGF-10 (Thermo Fisher Scientific, cat. 100-26), 500 nM SB-431542 (Selleckchem, cat. S1067), and gastrin (Tocris, cat. 3006).
[…]

[1] = second compound 0.0316 µM, first compound 0.0316 µM
[2] = second compound 0.0316 µM, first compound 0.1 µM
[3] = second compound 0.0316 µM, first compound 0.316 µM
[4] = second compound 0.0316 µM, first compound 1 µM
[5] = second compound 0.0316 µM, first compound 3.16 µM
[6] = second compound 0.0316 µM, first compound 10 µM
[7] = second compound 0.1 µM, first compound 0.0316 µM
[8] = second compound 0.1 µM, first compound 0.1 µM
[9] = second compound 0.1 µM, first compound 0.316 µM
[10] = second compound 0.1 µM, first compound 1 µM
[11] = second compound 0.1 µM, first compound 3.16 µM
[12] = second compound 0.1 µM, first compound 10 µM
[13] = second compound 0.316 µM, first compound 0.0316 µM
[14] = second compound 0.316 µM, first compound 0.1 µM
[15] = second compound 0.316 µM, first compound 0.316 µM
[16] = second compound 0.316 µM, first compound 1 µM
[17] = second compound 0.316 µM, first compound 3.16 µM
[18] = second compound 0.316 µM, first compound 10 µM
[19] = second compound 1 µM, first compound 0.0316 µM
[20] = second compound 1 µM, first compound 0.1 µM
[21] = second compound 1 µM, first compound 0.316 µM
[22] = second compound 1 µM, first compound 1 µM
[23] = second compound 1 µM, first compound 3.16 µM
[24] = second compound 1 µM, first compound 10 µM
[25] = second compound 3.16 µM, first compound 0.0316 µM
[26] = second compound 3.16 µM, first compound 0.1 µM
[27] = second compound 3.16 µM, first compound 0.316 µM
[28] = second compound 3.16 µM, first compound 1 µM
[29] = second compound 3.16 µM, first compound 3.16 µM
[30] = second compound 3.16 µM, first compound 10 µM
[31] = second compound 10 µM, first compound 0.0316 µM
[32] = second compound 10 µM, first compound 0.1 µM
[33] = second compound 10 µM, first compound 0.316 µM
[34] = second compound 10 µM, first compound 1 µM
[35] = second compound 10 µM, first compound 3.16 µM
[36] = second compound 10 µM, first compound 10 µM
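Further: spheroids exposed to the agents for seven days before readout.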
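Wherever viability, T/C is given: percent viability relative to DMSO vehicle control wells taken as 100%.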

Q: Which results are given for `COc1ncnc(C2CC2)c1-c1ncc2cnn(Cc3ccc(-c4nc(C(F)(F)F)cn4C(C)C)cc3)c2n1` + CN(C)c1ccc(Nc2c3ccc(NC(=O)CCN4CCCC4)cc3nc3cc(NC(=O)CCN4CCCC4)ccc23)cc1?
A: IC50 (second compound 0.0316 µM): > 10 µM; IC50 (second compound 0.1 µM): > 10 µM; IC50 (second compound 0.316 µM): > 10 µM; IC50 (second compound 1 µM): > 10 µM; IC50 (second compound 3.16 µM): > 10 µM; IC50 (second compound 10 µM): 5.62 µM; viability, T/C [1]: 103%; viability, T/C [2]: 97%; viability, T/C [3]: 108%; viability, T/C [4]: 98.1%; viability, T/C [5]: 100%; viability, T/C [6]: 109%; viability, T/C [7]: 103%; viability, T/C [8]: 100%; viability, T/C [9]: 105%; viability, T/C [10]: 105%; viability, T/C [11]: 92.7%; viability, T/C [12]: 107%; viability, T/C [13]: 103%; viability, T/C [14]: 102%; viability, T/C [15]: 105%; viability, T/C [16]: 100%; viability, T/C [17]: 92%; viability, T/C [18]: 106%; viability, T/C [19]: 93.9%; viability, T/C [20]: 99.5%; viability, T/C [21]: 104%; viability, T/C [22]: 92.7%; viability, T/C [23]: 98.3%; viability, T/C [24]: 101%; viability, T/C [25]: 102%; viability, T/C [26]: 98.2%; viability, T/C [27]: 106%; viability, T/C [28]: 100%; viability, T/C [29]: 106%; viability, T/C [30]: 110%; viability, T/C [31]: 102%; viability, T/C [32]: 103%; viability, T/C [33]: 109%; viability, T/C [34]: 107%; viability, T/C [35]: 91.7%; viability, T/C [36]: 8.22%

Q: `CC1COCCN1c1cc(-c2ccnn2C)c2ccnc(-c3ccn[nH]3)c2n1` (centres undefined) + Cc1[nH]c2ccc(F)cc2c1-c1nc2c3cccnc3c3ncccc3c2[nH]1 was tested. Which IC50 (second compound 0.0316 µM) did it give?
A: The IC50 was 0.17 µM.

Q: What about the IC50 (second compound 0.1 µM) of the same compound?
A: Its IC50 is 0.161 µM.

Q: What about the IC50 (second compound 0.316 µM) of the same compound?
A: Its IC50 is 0.172 µM.

Q: And the IC50 (second compound 1 µM)?
A: Its IC50 is 0.177 µM.

Q: And the IC50 (second compound 3.16 µM)?
A: The IC50 was 0.0799 µM.

Q: And the IC50 (second compound 10 µM)?
A: Its IC50 is 0.0693 µM.

Q: What about the viability, T/C [1] of the same compound?
A: The viability, T/C was 114%.

Q: And the viability, T/C [2]?
A: Its viability, T/C is 77.8%.

Q: What about the viability, T/C [3] of the same compound?
A: The viability, T/C was 17.3%.

Q: And the viability, T/C [4]?
A: The viability, T/C was 5.52%.

Q: And the viability, T/C [5]?
A: The viability, T/C was 4.65%.

Q: What about the viability, T/C [6] of the same compound?
A: Its viability, T/C is 3.39%.

Q: And the viability, T/C [7]?
A: The viability, T/C was 115%.

Q: What about the viability, T/C [8] of the same compound?
A: The viability, T/C was 73.2%.

Q: And the viability, T/C [9]?
A: The viability, T/C was 17%.

Q: What about the viability, T/C [10] of the same compound?
A: Its viability, T/C is 6.08%.

Q: What about the viability, T/C [11] of the same compound?
A: Its viability, T/C is 4.45%.

Q: What about the viability, T/C [12] of the same compound?
A: Its viability, T/C is 3%.

Q: What about the viability, T/C [13] of the same compound?
A: The viability, T/C was 110%.

Q: What about the viability, T/C [14] of the same compound?
A: The viability, T/C was 80.3%.

Q: And the viability, T/C [15]?
A: The viability, T/C was 15.6%.

Q: What about the viability, T/C [16] of the same compound?
A: The viability, T/C was 7.15%.

Q: And the viability, T/C [17]?
A: The viability, T/C was 4.49%.

Q: What about the viability, T/C [18] of the same compound?
A: Its viability, T/C is 3.06%.

Q: What about the viability, T/C [19] of the same compound?
A: The viability, T/C was 105%.

Q: What about the viability, T/C [20] of the same compound?
A: Its viability, T/C is 78.1%.

Q: And the viability, T/C [21]?
A: The viability, T/C was 21.1%.

Q: And the viability, T/C [22]?
A: Its viability, T/C is 8.54%.

Q: What about the viability, T/C [23] of the same compound?
A: The viability, T/C was 5.16%.

Q: What about the viability, T/C [24] of the same compound?
A: The viability, T/C was 2.92%.

Q: And the viability, T/C [25]?
A: The viability, T/C was 94.4%.

Q: And the viability, T/C [26]?
A: The viability, T/C was 39.3%.

Q: And the viability, T/C [27]?
A: The viability, T/C was 8.27%.

Q: What about the viability, T/C [28] of the same compound?
A: The viability, T/C was 7.24%.

Q: And the viability, T/C [29]?
A: Its viability, T/C is 5.24%.

Q: And the viability, T/C [30]?
A: The viability, T/C was 4.9%.

Q: What about the viability, T/C [31] of the same compound?
A: Its viability, T/C is 96.4%.

Q: And the viability, T/C [32]?
A: The viability, T/C was 28.4%.

Q: And the viability, T/C [33]?
A: Its viability, T/C is 5.29%.

Q: What about the viability, T/C [34] of the same compound?
A: Its viability, T/C is 5.42%.

Q: What about the viability, T/C [35] of the same compound?
A: The viability, T/C was 5.48%.

Q: What about the viability, T/C [36] of the same compound?
A: The viability, T/C was 5.5%.
